Experiment: xn = mol fraction of the nth substance listed
Settings: 101 kPa, Liquid, Vibrating tube method

O [water] + Cn1ccnc1
Settings	mass density [kg/m3]
318.15 K, x2 = 0	990.1

Cn1ccnc1 [1-methylimidazole] + O
mass density [kg/m3]
Settings	288.15 K	293.15 K	298.15 K	303.15 K	308.15 K	313.15 K	318.15 K	323.15 K
x1 = 0.0443	1010.2	1008.3	1006.2	1003.9	1001.6	999.2	996.6	994.2
x1 = 0.1036	1022.1	1019.3	1016.5	1013.3	1010.2	1007.1	1003.9	1000.9
x1 = 0.2167	1037.4	1033.7	1030.1	1026	1022.1	1018.2	1014.3	1010.6
x1 = 0.3003	1044.4	1040.3	1036.3	1031.9	1027.8	1023.6	1019.3	1015.4
x1 = 0.4024	1048.9	1044.6	1040.5	1035.9	1031.5	1027.2	1022.7	1018.6
x1 = 0.4982	1050.2	1045.8	1041.6	1036.8	1032.4	1028	1023.5	1019.3
x1 = 0.5902	1049.3	1044.7	1040.5	1035.7	1031.3	1026.9	1022.5	1018.4
x1 = 0.7159	1046.7	1042.2	1038	1033.2	1028.8	1024.4	1020	1015.9
x1 = 0.7795	1044.7	1040.2	1036	1031.2	1026.8	1022.4	1018	1013.9
x1 = 0.8907	1041.8	1037.4	1033.3	1028.5	1024.1	1019.7	1015.3	1011.2
x1 = 1	1039.4	1035	1030.9	1026.1	1021.7	1017.3	1012.9	1008.8
